Measured values reported in US9096643B2, “Cell-protective peptides and uses thereof” (priority 2010, dated 2015).
Values joined by “and” are separate entries in the source; they are usually repeats but may differ in a detail not shown here. Equal entries are not always repeated. No end group written: not given here.

Tests used:
[1] = system: neonatal rat CMs (heart cells); assay: Immunostaining for cardiac troponin I on coated surfaces; type: cell-based, rat (Sprague-Dawley); conditions: day 8 of cultivation, vs Az-chitosan alone, FIG. 3
Experimental: The day before cells were ready to be seeded, the surfaces in the 12-well plates were sterilized by germicidal UV illumination overnight. The PBS surrounding the surfaces was then aspirated off and 100,000 live cells were pipetted onto each surface in 100 μL of culture media. These surfaces were left in the incubator for 20 to 30 min to allow the cells to begin to adhere, and then supplemented with 1 mL of warm CM media. The cells were cultivated for 8 days, with 100% culture media change every 2-3 days. The initial seeding density of heart cells on peptide-chitosan coated surfaces was 88 cells/mm^2. […] Each type of surface was created in triplicate.
The immunostaining against cardiac troponin I was performed on cells fixed with 4 w/v % paraformaldehyde (PFA, Sigma). The samples were submersed in a blocking solution composed of 10% normal horse serum (NHS, Vector Laboratories) in PBS for 40 min at room temperature. This solution was removed and the sample was submersed in a solution containing primary antibody for 1 hour at 37° C. […] Each sample was made in triplicate and five pictures were taken of each surface to have an adequate representation for quantification. The numbers of nuclei were determined by counting the number of DAPI stained nuclei using the cell counting plugin on ImageJ. The number of CMs was determined by counting the number of successfully stained Troponin I cells.

[2] = system: neonatal cardiomyocytes encapsulated in chitosan hydrogels; assay: Functional testing by electrical field stimulation (ET, MCR) of encapsulated cardiomyocytes; type: cell-based, rat
Excerpt: The electrical function of in vitro samples of neonatal cardiomyocytes encapsulated in chitosan hydrogels for 6 d was established by measuring excitation threshold (ET), the minimum voltage required to pace the encapsulated cells simultaneously, and maximum capture rate (MCR) as previously described, (Radisic, Park et al. 2004), the contents of which are incorporated by reference. The MCR is the maximum stimulation rate at which the encapsulated cardiomyocytes can be induced to beat simultaneously, the encapsulated samples were placed between a pair of carbon electrodes immersed in warm Tyrode solution (Sigma, pH 7.4). The ET was measured by stimulating the samples with square pulses of 2 ms width at a frequency of 1 Hz and increasing the output voltage of the stimulator until ˜90% of the cells in the field-of-view were beating synchronously with the stimulator output. The MCR was measured by setting the output at 15 V, and increasing the frequency until most of the cells in the sample were no longer synchronously beating with the driving signal. All measurements were taken using bright field microscopy. The samples were placed in an environmental chamber at 37° C. for the measurements (N=3/group).

[3] = system: Lewis rats; assay: Subcutaneous implantation of cardiomyocyte/hydrogel constructs and histological assessment
Experimental: Cardiac constructs were made by encapsulation of neonatal Lewis rat cardiomyocytes in Az-chitosan-QHREDGS or Az-chitosan-RGDS. A total of 2×10^6 cardiomyocytes were resuspended in 15 μL of ice cold cardiomyocytes medium with 30% FBS for at least 10 min. These cells were then encapsulated in 100 μL of the hydrogel in transwell plates and constructs (2 mm thick and 6 mm in diameter) were produced. A total of 8 samples were made for each type of hydrogel, and 4 from each group were implanted, while the other 4 were retained as in vitro controls. Samples were cultured at 37° C. for 5 d before they were implanted in vivo.
Cardiac constructs described above were inserted subcutaneously into the abdomen of Lewis rats. Four samples were implanted for each type of hydrogel. […] Quantification of total SMA and Factor VIII was performed using ImageScope v10 (Aperio Technologies) and mean intensities were averaged for six fields for each sample and normalized to total area. […] Apoptosis was assessed using a TUNEL assay (Roche Applied Science) following the manufacturer's standard protocol.

[4] = system: Rat neonatal cardiomyocytes; assay: Doxorubicin induced apoptosis and caspase activation (Western blot); type: cell-based; conditions: 1 d, doses as low as 5 μM, FIG. 5B,C
Experimental: Rat neonatal cardiomyocytes were given doxorubicin (Dox) to induce apoptosis and PBS or peptide QHREDGS (1 d), Western blotting was conducted and levels assessed via densitometric analysis (Scion Image software).

[5] = system: human iPS cells; assay: EB differentiation of treated iPS cells; type: cell-based; conditions: after 5 passages of treatment, EB protocol
Experimental: Following 5 passages in continuous treatment, iPS cells were collected and differentiated into embryoid bodies (EB) containing cells of all three germ layers as described Itskovitz-Eldor, J. et al. Mol. Med. 6, 88-95 (2000). For further differentiation and analysis, EBs were plated onto 0.2% gelatin coated plates for another 10 days for attachment and fixed in 4% para-formaldehyde (Sigma) for immunohistochemistry.

[6] = system: human iPS cells; assay: Teratoma formation after grafting into hind-limb muscles of NOD-SCID mice; type: in vivo; conditions: 10 passages in 50 μM, grafted into NOD-SCID mice
[7] = system: human iPS cells 0901B; assay: BrdU assay of iPS cell proliferation; type: cell-based; conditions: 50 μM, 5 passages, FIG. 17
Experimental: (§1) After 5 passages in treatment, human iPS cells were passaged as described above in the presence of 50 μM QHREDGS, 50 μM DGQESHR (Biomatik), or PBS (Lonza) onto MEF plates and grown for 3 days. Cultures were pulsed for 1 hr with 10 μM BrdU (Sigma) and immediately analyzed for immunohistochemistry (see below). Ki67 (Millipore, 1:300) co-staining was used to differentiate MEFs from human iPS cells. All samples were counterstained with DAPI (300 nM, Sigma).

[8] = system: human iPS cells BJ1D; assay: BrdU assay of iPS cell proliferation; type: cell-based; conditions: 50 μM, 5 passages, FIG. 16
Experimental: as §1

[9] = 7 days after subcutaneous implantation

Row | Substance | percentage of troponin I positive cells [1] | ET (excitation threshold) ([2]; after six days of cultivation) | MCR (maximum capture rate) ([2]; after six days of cultivation) | cardiomyocyte contraction under electrical field stimulation ([2]; end of cultivation period) | cardiomyocytes in implant (sarcomeric α-actinin, troponin I staining) [3, 9] | percentage of apoptotic cells (TUNEL) [3, 9] | apoptotic cardiomyocytes (troponin I and TUNEL double staining) ([3]; 7 days after subcutaneous implantation, vs RGDS modified hydrogel) | biomaterial degradation and cell infiltration (H&E) ([3]; day 7 after subcutaneous implantation) | percentage of SMA+ myofibroblasts ([3]; vs Az-chitosan-RGDS hydrogel) | activation of caspases-3 and -6 [4] | differentiation into neural, mesodermal and endodermal cells [5] | teratoma formation [6] | rate of proliferation (BrdU incorporation, 1 hr pulse) [7] | rate of proliferation (BrdU incorporation, 1 hr pulse) [8]
1 | Az-chitosan-QHREDGS: QHREDGS peptide covalently conjugated to Az-chitosan by EDC chemistry (also: covalently conjugated to Az-chitosan by EDC chemistry, site not given here) | increase in the percentage of troponin I positive cells | 7.0 ± 0.4; V and 9.2 ± 0.6 V | 4.3 ± 0.1 pps | beat synchronously | larger areas of cardiomyocytes | ~1.5% | fewer apoptotic cardiomyocytes | less cell infiltration | significantly higher percentage of SMA+ myofibroblasts |  |  |  |  | 
2 | QHREDGS (angiopoietin 1 peptide) |  |  |  |  |  |  |  |  |  | blocked | retained the competence to differentiate | continued to form teratomas | remained the same | remained the same
